Laboratory results from ChEMBL document CHEMBL1671859, “bla(IMP-4) in different genetic contexts in Enterobacteriaceae isolates from Australia” (2008).
In brackets after ≈: the same amount, converted by molar mass.

Experiments:
Format in all cases: functional
Escherichia coli [1] = experiment: Antibacterial activity against Escherichia coli Ec221 transconjugant harboring IncA/C plasmid and blaIMP-4-qacG2-aacA4-catB3 array by Etest method
Enterobacter cloacae [2] = experiment: Antibacterial activity against Enterobacter cloacae isolate El3799 harboring IncL/M plasmid and blaIMP-4-qacG2-aacA4-catB3 array by Etest method
Klebsiella pneumoniae [3] = experiment: Antibacterial activity against Klebsiella pneumoniae Kp149 transconjugant harboring IncA/C plasmid and blaIMP-4-qacG2-aacA4-catB3 array by Etest method
Klebsiella pneumoniae [4] = experiment: Antibacterial activity against Klebsiella pneumoniae isolate Kp4614
Escherichia coli [5] = experiment: Antibacterial activity against Escherichia coli isolate Ec9381 harboring IncL/M plasmid and blaIMP-4-qacG2-aacA4-catB3 array by Etest method
Morganella morganii [6] = experiment: Antibacterial activity against Morganella morganii isolate Mm1229 harboring IncL/M plasmid and blaIMP-4-qacG2-aacA4-catB3 array by Etest method
Citrobacter youngae [7] = experiment: Antibacterial activity against Citrobacter youngae CyB38 transconjugant harboring blaIMP-4-qacG2-aacA4-catB3 array by Etest method
Klebsiella pneumoniae [8] = experiment: Antibacterial activity against Klebsiella pneumoniae isolate Kp1945 harboring IncL/M plasmid and blaIMP-4-qacG2-aacA4-catB3 and dfrA12-orfF-aadA2 arrays by Etest method
Klebsiella pneumoniae [9] = experiment: Antibacterial activity against Klebsiella pneumoniae isolate Kp211 harboring IncA/C plasmid and blaIMP-4-qacG2-aacA4-catB3 array by Etest method
Escherichia coli [10] = experiment: Antibacterial activity against Escherichia coli Ec158 transconjugant harboring IncA/C plasmid and blaIMP-4-qacG2-aacA4-catB3 array by Etest method
Klebsiella pneumoniae [11] = experiment: Antibacterial activity against Klebsiella pneumoniae isolate Kp7564 harboring IncL/M plasmid and blaIMP-4-qacG2-aacA4-catB3 array by Etest method
Klebsiella oxytoca [12] = experiment: Antibacterial activity against Klebsiella oxytoca isolate Ko238 harboring IncA/C plasmid and blaIMP-4-qacG2-aacA4-catB3 array by Etest method
Klebsiella oxytoca [13] = experiment: Antibacterial activity against Klebsiella oxytoca Ko0426 transconjugant harboring IncL/M plasmid and blaIMP-4-qacG2-aacA4-catB3 array by Etest method
Klebsiella pneumoniae [14] = experiment: Antibacterial activity against Klebsiella pneumoniae Kp3799 transconjugant harboring IncL/M plasmid and blaIMP-4-qacG2-aacA4-catB3 array by Etest method
Klebsiella pneumoniae [15] = experiment: Antibacterial activity against Klebsiella pneumoniae isolate Kp204 harboring IncA/C plasmid and blaIMP-4-qacG2-aacA4-catB3 array by Etest method
Klebsiella pneumoniae [16] = experiment: Antibacterial activity against Klebsiella pneumoniae isolate Kp1239 harboring IncL/M plasmid and blaIMP-4-qacG2-aacA4-catB3 array by Etest method
Citrobacter koseri [17] = experiment: Antibacterial activity against Citrobacter koseri Ck211 transconjugant harboring IncA/C plasmid and blaIMP-4-qacG2-aacA4-catB3 array by Etest method
Morganella morganii [18] = experiment: Antibacterial activity against Morganella morganii Mm38009 transconjugant harboring IncL/M plasmid and blaIMP-4-qacG2-aacA4-catB3 array by Etest method
Citrobacter koseri [19] = experiment: Antibacterial activity against Citrobacter koseri isolate Ck211 harboring IncA/C plasmid and blaIMP-4-qacG2-aacA4-catB3 array by Etest method
Klebsiella pneumoniae [20] = experiment: Antibacterial activity against Klebsiella pneumoniae isolate Kp2730 harboring IncL/M plasmid and blaIMP-4-qacG2-aacA4-catB3 and dfrA12-orfF-aadA2 arrays by Etest method
Serratia marcescens [21] = experiment: Antibacterial activity against Serratia marcescens Sm265 transconjugant harboring IncA/C plasmid and blaIMP-4-qacG2-aacA4-catB3 array by Etest method
Serratia marcescens [22] = experiment: Antibacterial activity against Serratia marcescens isolate Sm201 harboring IncA/C plasmid and blaIMP-4-qacG2-aacA4-catB3 array by Etest method
Klebsiella oxytoca [23] = experiment: Antibacterial activity against Klebsiella oxytoca Ko238 transconjugant harboring IncA/C plasmid and blaIMP-4-qacG2-aacA4-catB3 array by Etest method
Klebsiella oxytoca [24] = experiment: Antibacterial activity against Klebsiella oxytoca Ko1156 transconjugant harboring IncL/M plasmid and blaIMP-4-qacG2-aacA4-catB3 array by Etest method
Enterobacter cloacae [25] = experiment: Antibacterial activity against Enterobacter cloacae isolate El3280 harboring IncL/M plasmid and blaIMP-4-qacG2-aacA4-catB3 array by Etest method
Klebsiella pneumoniae [26] = experiment: Antibacterial activity against Klebsiella pneumoniae Kp204 transconjugant harboring IncA/C plasmid and blaIMP-4-qacG2-aacA4-catB3 array by Etest method
Klebsiella pneumoniae [27] = experiment: Antibacterial activity against Klebsiella pneumoniae isolate Kp266 harboring IncA/C plasmid and blaIMP-4-qacG2-aacA4-catB3 array by Etest method
Serratia marcescens [28] = experiment: Antibacterial activity against Serratia marcescens Sm2723 transconjugant harboring IncL/M plasmid and blaIMP-4-qacG2-aacA4-catB3 array by Etest method
Escherichia coli [29] = experiment: Antibacterial activity against Escherichia coli isolate Ec158 harboring IncA/C plasmid and blaIMP-4-qacG2-aacA4-catB3 array by Etest method
Enterobacter cloacae [30] = experiment: Antibacterial activity against Enterobacter cloacae El3518 transconjugant harboring IncL/M plasmid and blaIMP-4-qacG2-aacA4-catB3 array by Etest method
Serratia marcescens [31] = experiment: Antibacterial activity against Serratia marcescens isolate Sm211 harboring IncA/C plasmid and blaIMP-4-qacG2-aacA4-catB3 array by Etest method
Morganella morganii [32] = experiment: Antibacterial activity against Morganella morganii isolate Mm1614 harboring IncL/M plasmid and blaIMP-4-qacG2-aacA4-catB3 array by Etest method
Enterobacter cloacae [33] = experiment: Antibacterial activity against Enterobacter cloacae El3799 transconjugant harboring IncL/M plasmid and blaIMP-4-qacG2-aacA4-catB3 array by Etest method
Morganella morganii [34] = experiment: Antibacterial activity against Morganella morganii isolate Mm38009 harboring IncL/M plasmid and blaIMP-4-qacG2-aacA4-catB3 array by Etest method
Klebsiella pneumoniae [35] = experiment: Antibacterial activity against Klebsiella pneumoniae isolate Kp38009 harboring IncL/M plasmid and blaIMP-4-qacG2-aacA4-catB3 array by Etest method
Serratia marcescens [36] = experiment: Antibacterial activity against Serratia marcescens isolate Sm220 harboring IncA/C plasmid and blaIMP-4-qacG2-aacA4-catB3 array by Etest method
Enterobacter cloacae [37] = experiment: Antibacterial activity against Enterobacter cloacae isolate El216 harboring IncA/C plasmid and blaIMP-4-qacG2-aacA4-catB3 array by Etest method
Citrobacter youngae [38] = experiment: Antibacterial activity against Citrobacter youngae isolate CyB38 harboring blaIMP-4-qacG2-aacA4-catB3 array by Etest method
Enterobacter cloacae [39] = experiment: Antibacterial activity against Enterobacter cloacae isolate El3518 harboring IncL/M plasmid and blaIMP-4-qacG2-aacA4-catB3 array by Etest method
Serratia marcescens [40] = experiment: Antibacterial activity against Serratia marcescens isolate Sm265 harboring IncA/C plasmid and blaIMP-4-qacG2-aacA4-catB3 array by Etest method
Enterobacter cloacae [41] = experiment: Antibacterial activity against Enterobacter cloacae isolate El1573 harboring IncL/M plasmid and blaIMP-4-qacG2-aacA4-catB3 array by Etest method
Citrobacter amalonaticus = experiment: Antibacterial activity against Citrobacter amalonaticus isolate Ca1614 harboring IncL/M plasmid and blaIMP-4-qacG2-aacA4-catB3 array by Etest method

GENTAMICIN
MIC (Escherichia coli [1]): < 2 µg/mL | MIC (Enterobacter cloacae [2]): > 8 µg/mL | MIC (Klebsiella pneumoniae [3]): > 8 µg/mL | MIC (Klebsiella pneumoniae [4]): > 8 µg/mL | MIC (Escherichia coli [5]): > 8 µg/mL | MIC (Morganella morganii [6]): > 8 µg/mL | MIC (Citrobacter youngae [7]): < 2 µg/mL | MIC (Klebsiella pneumoniae [8]): > 8 µg/mL | MIC (Klebsiella pneumoniae [9]): > 8 µg/mL | MIC (Escherichia coli [10]): > 8 µg/mL | MIC (Klebsiella pneumoniae [11]): > 8 µg/mL | MIC (Klebsiella oxytoca [12]): 4 µg/mL | MIC (Klebsiella oxytoca [13]): > 8 µg/mL | MIC (Klebsiella pneumoniae [14]): > 8 µg/mL | MIC (Klebsiella pneumoniae [15]): < 2 µg/mL | MIC (Klebsiella pneumoniae [16]): > 8 µg/mL | MIC (Citrobacter koseri [17]): > 8 µg/mL | MIC (Morganella morganii [18]): > 8 µg/mL | MIC (Citrobacter koseri [19]): > 8 µg/mL | MIC (Klebsiella pneumoniae [20]): > 8 µg/mL | MIC (Serratia marcescens [21]): < 2 µg/mL | MIC (Serratia marcescens [22]): > 8 µg/mL | MIC (Klebsiella oxytoca [23]): < 2 µg/mL | MIC (Klebsiella oxytoca [24]): > 8 µg/mL | MIC (Enterobacter cloacae [25]): > 8 µg/mL | MIC (Klebsiella pneumoniae [26]): < 2 µg/mL | MIC (Klebsiella pneumoniae [27]): > 8 µg/mL | MIC (Serratia marcescens [28]): > 8 µg/mL | MIC (Escherichia coli [29]): > 8 µg/mL | MIC (Enterobacter cloacae [30]): > 8 µg/mL | MIC (Serratia marcescens [31]): > 8 µg/mL | MIC (Morganella morganii [32]): > 8 µg/mL | MIC (Enterobacter cloacae [33]): > 8 µg/mL | MIC (Morganella morganii [34]): > 8 µg/mL | MIC (Klebsiella pneumoniae [35]): > 8 µg/mL | MIC (Serratia marcescens [36]): > 8 µg/mL | MIC (Enterobacter cloacae [37]): > 8 µg/mL | MIC (Citrobacter youngae [38]): > 8 µg/mL | MIC (Enterobacter cloacae [39]): > 8 µg/mL | MIC (Serratia marcescens [40]): 8 µg/mL | MIC (Enterobacter cloacae [41]): > 8 µg/mL | MIC (Citrobacter amalonaticus): > 8 µg/mL

NC[C@H]1O[C@H](O[C@H]2[C@H](O)[C@@H](O[C@H]3O[C@H](CO)[C@@H](O)[C@H](N)[C@H]3O)[C@H](N)C[C@@H]2N)[C@H](N)C[C@@H]1O [TOBRAMYCIN]
MIC (Escherichia coli [1]): 8 µg/mL (≈ 17.1 µM) | MIC (Enterobacter cloacae [2]): > 8 µg/mL | MIC (Klebsiella pneumoniae [3]): 8 µg/mL (≈ 17.1 µM) | MIC (Klebsiella pneumoniae [4]): 8 µg/mL (≈ 17.1 µM) | MIC (Escherichia coli [5]): > 8 µg/mL | MIC (Morganella morganii [6]): > 8 µg/mL | MIC (Citrobacter youngae [7]): 8 µg/mL (≈ 17.1 µM) | MIC (Klebsiella pneumoniae [8]): > 8 µg/mL | MIC (Klebsiella pneumoniae [9]): 8 µg/mL (≈ 17.1 µM) | MIC (Escherichia coli [10]): 8 µg/mL (≈ 17.1 µM) | MIC (Klebsiella pneumoniae [11]): 8 µg/mL (≈ 17.1 µM) | MIC (Klebsiella oxytoca [12]): 8 µg/mL (≈ 17.1 µM) | MIC (Klebsiella oxytoca [13]): 8 µg/mL (≈ 17.1 µM) | MIC (Klebsiella pneumoniae [14]): 8 µg/mL (≈ 17.1 µM) | MIC (Klebsiella pneumoniae [15]): 8 µg/mL (≈ 17.1 µM) | MIC (Klebsiella pneumoniae [16]): 8 µg/mL (≈ 17.1 µM) | MIC (Citrobacter koseri [17]): 8 µg/mL (≈ 17.1 µM) | MIC (Morganella morganii [18]): 8 µg/mL (≈ 17.1 µM) | MIC (Citrobacter koseri [19]): 8 µg/mL (≈ 17.1 µM) | MIC (Klebsiella pneumoniae [20]): > 8 µg/mL | MIC (Serratia marcescens [21]): 8 µg/mL (≈ 17.1 µM) | MIC (Serratia marcescens [22]): > 8 µg/mL | MIC (Klebsiella oxytoca [23]): 8 µg/mL (≈ 17.1 µM) | MIC (Klebsiella oxytoca [24]): 8 µg/mL (≈ 17.1 µM) | MIC (Enterobacter cloacae [25]): > 8 µg/mL | MIC (Klebsiella pneumoniae [26]): 8 µg/mL (≈ 17.1 µM) | MIC (Klebsiella pneumoniae [27]): > 8 µg/mL | MIC (Serratia marcescens [28]): 8 µg/mL (≈ 17.1 µM) | MIC (Escherichia coli [29]): 8 µg/mL (≈ 17.1 µM) | MIC (Enterobacter cloacae [30]): > 8 µg/mL | MIC (Serratia marcescens [31]): > 8 µg/mL | MIC (Morganella morganii [32]): > 8 µg/mL | MIC (Enterobacter cloacae [33]): 8 µg/mL (≈ 17.1 µM) | MIC (Morganella morganii [34]): 4 µg/mL (≈ 8.56 µM) | MIC (Klebsiella pneumoniae [35]): 8 µg/mL (≈ 17.1 µM) | MIC (Serratia marcescens [36]): > 8 µg/mL | MIC (Enterobacter cloacae [37]): > 8 µg/mL | MIC (Citrobacter youngae [38]): > 8 µg/mL | MIC (Enterobacter cloacae [39]): > 8 µg/mL | MIC (Serratia marcescens [40]): > 8 µg/mL | MIC (Enterobacter cloacae [41]): > 8 µg/mL | MIC (Citrobacter amalonaticus): > 8 µg/mL
